A short description of series [1]: Hepatocyte stability, mice. The note with it: for Hepatocyte Mice: clearance in hepatocytes. It counts as in vitro ADME. The method, boiled down:
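Clearance expressed as % of liver blood flow (% Qh), derived from half-life via the well-stirred liver model. Compound at 1 µM final was incubated up to 6 h with ~1 million cells/mL hepatocytes in 50% serum buffer, 37 °C, pH 7.4.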

Series [2] is classed as in vitro ADME, Rat. The note with it: for Hepatocyte Rat: clearance in hepatocytes.
The test system of the next series is Mtb (moxR) FNDR-M1. Description: microbe, parasite or virus in culture. The class given is cell-based.
The next series concerns Enterococcus faecium. Description: MIC ESKAPES panel, Enterococcus faecium. The class given is cell-based. The method, then:
(§1) Minimum inhibitory concentration (MIC) against ESKAPES panel of Gram positive and Gram negative pathogens (Enterococcus faecium, Staphylococcus aureus, Klebsiella pneumoniae, Acinetobacter baumannii, Pseudomonas aeruginosa, Enterobacter cloacae and Salmonella typhimurium [ESKAPES panel]) were determined at the FNDR by the standard broth dilution method [CLSI, M100]. […] Mueller Hinton broth (MHB) medium was used to grow ESKAPES panel strains. The individual cultures were added as 200 μL (inoculum of 3–7 × 10^5 cfu/ml) to the respective assay plates in each well to all columns, except the media control (200 μL of medium). […] The assay plates were incubated at 37 °C, and the results were noted on the 2nd day as turbidometric readout. The clear wells indicated inhibition of growth, while the turbid wells indicated uninhibited growth.

The subject of another series is Staphylococcus aureus. Description: MIC ESKAPES panel, Staphylococcus aureus. It counts as cell-based. The method, then: as §1
The test system of the next series is Acinetobacter baumannii. Nature of the series: MIC ESKAPES panel, Acinetobacter baumannii. The class given is cell-based. The method, then: as §1
Another series relates to Msm #607. Description: Minimum bactericidal concentration (MBC), Msm #607. It counts as cell-based, Mycobacterium smegmatis. The conditions noted are these: Mycolicibacterium smegmatis.
A further series deals with Mtb H37Rv. Description: Minimum bactericidal concentration (MBC), Mtb H37Rv. The class given is cell-based, Mycobacterium tuberculosis.
The test system of series [3] is Mtb H37Rv in THP-1 macrophages. Description: Intracellular MIC assay in THP-1 macrophages. The class given is cell-based, Mycobacterium tuberculosis. Set-up: Emax: unit not given here.
The next series in a line: in vivo. The class given is in vivo, BALB/cAnNCrl mice. The conditions noted are these: BLOQ <1.00 nmol/L. The method, then:
The in-life experimental procedures were conducted in strict compliance with German and European animal welfare legislation in an AAALAC-accredited facility. Male BALB/cAnNCrl mice (Charles River Laboratories Research Models and Services, 97633 Sulzfeld, Germany) were used. Animals were 9 weeks old at dosing with a body weight of 21.6–24.3 g. Animals were delivered free of pathogens according to FELASA recommendations with a health certificate provided by the breeder. Upon receipt, the state of health and sex was checked. Animals acclimatized for at least 5 days before the commencement of the in-life phase. During acclimation, animals were group-housed in individually ventilated cages, on birch wood granulate bedding with species-specific enrichment (nesting material, mouse igloo, gnawing wood). During experimental conduct, animals were housed in conventional cages with elevated grid floors. Grid floor was used to avoid contamination with test item material excreted via urine and feces and subsequent reuptake during fur grooming. No bedding and enrichment were provided except a cage divider, which can be used as a shelter. Animals always had unlimited access to food and water and received a pelleted, total pathogen-free maintenance diet and tap drinking water, sterilized by filter.
On the day before dosing, test item(s) were suspended in kleptose (20% in WFI) under continuous stirring (3.0 mg/ml). Following 2 min vortexing and 1 h stirring, the formulation was sonicated at 60 °C for 30 min and stirred at ambient temperature overnight. Before dosing, the formulation was vortexed for 2 min followed by ultraturrax treatment for 2 min.
Male BALB/cAnNCrl mice (n = 3 per test item and administration route) received a bolus dose of the formulated test item(s) (1 mg/kg iv, 30 mg/kg po) at t = 0 h, and whole blood samples were collected subsequently (35 µl at 0.1 (iv) / 0.25 (po), 0.5, 1, 2, 4, 6 h; 600 µl at sacrifice after 24 h). Animals were euthanized by exsanguination in deep isoflurane anesthesia. Whole blood samples were immediately stored on ice at about 4 °C. Plasma was separated by centrifugation at approximately 10,000 × g for 5 m at +4 °C. Centrifugation of each blood sample was started within 10 m after collection. A single aliquot of at least 15 µL of plasma was prepared and immediately stored at −20 ± 5 °C.
Sample proteins were precipitated with ACN (1 + 12, v/v) containing internal standard, and supernatants analyzed by quantitative UPLC-MS/MS: Phenomenex Luna Omega C18, 2.1 × 50 mm, 1.6 µm, 40 °C, gradient between 10% - 90% ACN with 0.1% formic acid. LogD determination: Lipophilicity of the test items, expressed as chromLogD7.5, was assessed by measuring their chromatographic retention times on C18-material. The chromatographic retention versus logD7.5 values of a series of thirteen n-alkan-2-ones (2-butanone – 2-hexadecanone) served as lipophilicity calibration.

Setting [4] is: M. tuberculosis FNDR-M1, single well replicates.
Where [5] appears, read: Mycobacterium tuberculosis, M. tuberculosis FNDR-M1, single well replicates.
Setting [6] is: Mycobacterium tuberculosis, Mtb (moxR) FNDR-M1, mean ± SD, n = 3 well replicates.
Setting [7] is: Enterococcus faecium, Gram positive, n = 3 well replicates.
The mark [8] stands for this setting: Enterococcus faecium, Gram-Positive Bacteria, replicates 1-3.
Where [9] appears, read: Gram-Positive Bacteria, replicates 1-3.
[10] abbreviates: Staphylococcus aureus, Gram positive, n = 3 well replicates.
[11] abbreviates: Staphylococcus aureus, Gram-Positive Bacteria, replicates 1-3.
[12] abbreviates: Gram negative, n = 3 well replicates, read-out: MIC Acinetobacter baumanii.
[13] abbreviates: Gram-Negative Bacteria, replicates 1-3, read-out: MIC Acinetobacter baumannii.
[14] abbreviates: ATCC607, read-out: MBC (from Set 3) Msm ATCC 607.
Setting [15] is: read-out: MBC Msm #607, individual example.
Where [16] appears, read: Mycobacterium tuberculosis, H37RV; individual example; read-out: MBC Mtb H37Rv.
The mark [17] stands for this setting: oral gavage 30 mg/kg, mice, Mean.
Setting [18] is: oral gavage, individual animals 1-3.

Structures are written as SMILES. In brackets after ≈: the same amount, converted by molar mass. Several values for one entry are separate records, joined by “and”; a condition that tells them apart may be missing. Equal values may be shown once. Read-outs that look alike come from different tables or passages of the source. Where a SMILES comes first, the peptide text is derived from it. [ ]: non-standard residue; d: D form. NMeLeu(5-OH,4R) = CN[C@@H](C[C@@H](C)CO)C(=O)O; Phe(βR-OMe) = CO[C@H](c1ccccc1)[C@H](N)C(=O)O; Trp(1-Me) = Cn1cc(C[C@H](N)C(=O)O)c2ccccc21; NMeL = CN[C@@H](CC(C)C)C(=O)O; Pra = C#CC[C@H](N)C(=O)O Some results are limits rather than exact numbers.

Regarding `C#CC[C@@H]1NC(=O)[C@H](CC(C)C)N(C)C(=O)[C@H](C(C)C)NC(=O)[C@H]([C@H](OC)c2ccccc2)NC(=O)[C@H](C)NC(=O)[C@H](C[C@@H](C)CO)N(C)C(=O)[C@H](Cc2cn(C)c3ccccc23)NC1=O` [Compound 10] (cyclo(A[Phe(βR-OMe)]V[NMeL][Pra][Trp(1-Me)][NMeLeu(5-OH,4R)])), the “Hepatocyte Stability Mouse QH” value in series [1] (Mouse) was 64.420%. Besides, the “Hepatocyte Mice” value in [1] is recorded as 64 %Qh. Moreover, the “Hepatocyte Stability Rat QH” value in series [2] (Rat) is 69.830%. Further, in [2], the “Hepatocyte Rat” value is reported as 70 %Qh. Besides, the MIC in the series with Mtb (moxR) FNDR-M1 (setting [4]) is 1.56 µM (≈ 1.42 µg/mL); in the series on Mtb (moxR) FNDR-M1 (setting [5]), 1.56 µM (≈ 1.42 µg/mL); in the series on Mtb (moxR) FNDR-M1 (setting [6]) it was 1.6 µM (≈ 1.46 µg/mL); against Enterococcus faecium (setting [7]), more than 50 µM; against Enterococcus faecium (setting [8]), more than 45.6 µg/mL; against Enterococcus faecium (setting [9]), more than 50 µM. The MIC is more than 50 µM with Staphylococcus aureus (setting [9]); more than 50 µM against Staphylococcus aureus (setting [10]); more than 45.6 µg/mL with Staphylococcus aureus (setting [11]); more than 50 µM in the series on Acinetobacter baumannii (setting [12]); > 50 µM and > 45.6 µg/mL with Acinetobacter baumannii (setting [13]). Moreover, the MBC with Msm #607 (setting [14]) was > 45.6 µg/mL and > 50 µM; with Msm #607 (setting [15]), > 50 µM and > 45.7 µg/mL; in the series on Mtb H37Rv (Mycobacterium tuberculosis, H37RV, read-out: MBC (from Set 3) Mtb H37Rv), 12.5 µM and 11.4 µg/mL; with Mtb H37Rv (setting [16]) it was 12.5 µM and 11.4 µg/mL. In [3], this compound returned an Emax of 0.19.

Consider `COc1c(N2C[C@@H]3CCCN[C@@H]3C2)c(F)cc2c(=O)c(C(=O)O)cn(C3CC3)c12` [Moxifloxacin, reference compound], for which the MIC in the series on Mtb (moxR) FNDR-M1 (setting [4]) was 19.93 µM (≈ 8 µg/mL); in the series with Mtb (moxR) FNDR-M1 (setting [5]), 19.9 µM (≈ 8 µg/mL); against Mtb (moxR) FNDR-M1 (setting [6]), 19.9 µM (≈ 7.99 µg/mL); against Enterococcus faecium (setting [7]), 79.7 µM; with Enterococcus faecium (setting [8]), 79.7 µM and 32 µg/mL; in the series on Staphylococcus aureus (setting [10]), 0.3 µM. In addition, the MIC in the series with Staphylococcus aureus (setting [11]) is 0.31 µM and 0.125 µg/mL; in the series on Acinetobacter baumannii (setting [12]), 0.3 µM (≈ 0.12 µg/mL); in the series on Acinetobacter baumannii (setting [13]), 0.31 µM and 0.125 µg/mL. The minimal bactericidal concentration (MBC) in the series with Msm #607 (setting [14]) is 0.13 µg/mL and 0.31 µM; in the series on Msm #607 (setting [15]) it was 0.3 µM and 0.1 µg/mL; in the series on Mtb H37Rv (setting [16]), 0.3 µM and 0.1 µg/mL; in the series on Mtb H37Rv (Mycobacterium tuberculosis, H37RV; read-out: MBC (from Set 3) Mtb H37Rv), 0.13 µg/mL and 0.31 µM.

As for `CO[C@H](c1ccccc1)[C@@H]1NC(=O)[C@H](C)NC(=O)[C@H](C[C@@H](C)CO)N(C)C(=O)[C@H](Cc2cn(Cc3cn(CCOCCn4cc(Cn5cc(C[C@@H]6NC(=O)[C@H](C(C)C)NC(=O)[C@H](CC(C)C)N(C)C(=O)[C@H](C(C)C)NC(=O)[C@H]([C@H](OC)c7ccccc7)NC(=O)[C@H](C)NC(=O)[C@H](C[C@@H](C)CO)N(C)C6=O)c6ccccc65)nn4)nn3)c3ccccc23)NC(=O)[C@H](C(C)C)NC(=O)[C@H](CC(C)C)N(C)C(=O)[C@H](C(C)C)NC1=O` [Compound 6], the “Hepatocyte Mice” value in series [1] is reported as 15 %Qh. Moreover, the “Hepatocyte Rat” value in [2] came out at 6 %Qh. Moreover, in the series “in vivo” (setting [17]), the “Plasma concentration 0.5 h” value is “BLOQ”, the “Plasma concentration 1 h” value is “BLOQ”, the “Plasma concentration 2 h” value is “BLOQ” and the “Plasma concentration 4 h” value is “BLOQ”. In the series “in vivo” (setting [17]), the “Plasma concentration 6 h” value is recorded as “BLOQ”, the “Plasma concentration 24 h” value is on record as “BLOQ” and the “Plasma concentration […]” value is on record as “BLOQ”. For the same compound, in “in vivo” (setting [18]), the “Plasma concentration 0.5 h” value is “BLOQ”, the “Plasma concentration 1 h” value is “BLOQ”, the “Plasma concentration 2 h” value is given as “BLOQ” and the “Plasma concentration 4 h” value is given as “BLOQ”. Besides, in the series “in vivo” (setting [18]), the “Plasma concentration 6 h” value is given as “BLOQ”, the “Plasma concentration 24 h” value is recorded as “BLOQ” and the “Plasma concentration […]” value was “BLOQ”.

By MBC is commonly meant the smallest concentration meeting the test's criterion for killing.

(Values after publication PMC10914731, “Homo-BacPROTAC-induced degradation of ClpC1 as a strategy against drug-resistant mycobacteria” (Nature Communications, 2024).)
